# According to article PMC9368981, “The γ-Core Motif Peptides of AMPs from Grasses Display Inhibitory Activity against Human and Plant Pathogens” (International Journal of Molecular Sciences, 2022):
# Where a SMILES comes first, the peptide text is derived from it. Where no end group is shown, it is not given here.
# Columns and labels:
# [1] = test system: Candida albicans VKM Y-2994; type: cell-based; conditions: for Inhibition of C. albicans at the highest tested concentration: inhibition curves (Figure 4), highest tested concentration (300 µM)
# Method: (§1) The antimicrobial activity of synthetic peptides was tested against a panel of human and plant pathogens. Among them were the yeasts Candida albicans VKM Y-2994 and Cryptococcus neoformans VKM Y-2755, the plant pathogenic bacteria Clavibacter michiganensis subsp. michiganensis VKM Ac-1403, Pseudomonas savastanoi pv. savastanoi VKM B-1546 and Pectobacterium carotovorum subsp. carotovorum VKM B-1247, and four Fusarium species (F. oxysporum VKM F-137, F. culmorum VKM F-2303, F. solani VKM F-142 and F. verticillioides VKM F-670), which cause diseases in plants and humans. The antimicrobial activity was first measured at the peptide concentration of 300 µM (Figure 3).
# (§2) The antimicrobial activity of synthetic peptides was tested against the yeasts Candida albicans VKM Y-2994 and Cryptococcus neoformans VKM Y-2755, the bacteria Pseudomonas savastanoi pv. savastanoi VKM B-1546, Pectobacterium carotovorum subsp. carotovorum VKM B-1247 and Clavibacter michiganensis subsp. michiganensis VKM Ac-1403, and four Fusarium species: F. culmorum VKM F-2303, F. oxysporum VKM F-137, F. solani VKM F-142 and F. verticillioides VKM F-670. All cultures were obtained from the All-Russian Collection of Microorganisms (VKM). The details of the production and storage of cultures of microorganisms used in this study are described at the VKM Home page. Antimicrobial assays were accomplished according to the procedure described earlier. In short, yeasts were grown on the YPD-P medium and the bacteria P. carotovorum and Cl. michiganensis were cultured on a modified YPD-P medium. The Fusarium fungi were grown on potato dextrose agar at 25 °C for 7–8 days, and spores were washed off from the surface of the mycelia with sterile, distilled water. The antimicrobial activity of the peptides was measured in immunoassay microtiter plates according to the protocol of Broekaert et al.. With yeasts and bacteria, each well contained 10 µL of the tested peptide solution (final concentrations of 10–300 µM) in water, 80 µL of the medium and 10 µL of the microbial suspension. The plates were incubated at 30 °C for 24 h, and the absorbance of the suspension was measured on an Efos 9305 spectrophotometer (Sapphire, Moscow, Russia) at 594 nm. For Fusarium species, the wells of a microtiter plate were filled with 90 µL of the fungal spore suspension in half-strength potato dextrose broth at a concentration of 2000–3000 spores in 100 µL and 10 µL of aqueous solutions of peptides at final concentrations of 10–300 µM. After 38 h of incubation, the absorbance was recorded at 595 nm on a FilterMax F5 Multi-Mode Microplate Reader (Molecular Devices, San Jose, CA, USA). Antimicrobial activity is expressed in IC50 values, which show the concentration necessary for 50% inhibition of the pathogen growth; this was determined from a graph showing the activity dependence on peptide concentration.
# (§3) For each pathogen, experiments on the peptide antimicrobial activity evaluation were carried out in triplicate per treatment. Mean values, standard deviations (SD), and the significance of differences (p ≤ 0.05) of the means between treatments and controls (t-test for independent variables) were determined using STATISTICA v. 6.1 software (StatSoft Inc., Tulsa, OK, USA).
# [2] = test system: Cr. neoformans cells; assay: Propidium iodide staining, fluorescence microscopy; type: cell-based, Cryptococcus neoformans; conditions: peptide 300 µM, 30 °C, 1 h, 0.03 mM PI 15 min
# Method: (§4) Their ability to disturb the integrity of pathogen membranes was assayed by staining with propidium iodide of C. albicans and Cr. neoformans cells preliminarily incubated with the peptides. The results were visualized by fluorescent microscopy and quantified by flow cytometry (Figure 5, Figure 6 and Figure 7).
# (§5) Staining of yeast cells with propidium iodide in the presence of the γ-core peptides was carried out according to the protocol described earlier. C. albicans or Cr. neoformans cells (24 h culture in YPD-P at a cell concentration of 2 × 10^8/mL) were incubated with the peptide at a concentration of 300 µM at 30 °C for 1 h. After incubation, 1 mL of the cells was stained with 0.03 mM propidium iodide (Sigma, St. Louis, MO, USA). The staining proceeded for 15 min at 30 °C. The fluorescence was recorded on an AXIO Imager A1 fluorescence microscope (ZEISS, Göttingen, Germany) using a Zeiss filter set 56 HE.
# [3] = test system: C. albicans cells; assay: Propidium iodide staining, fluorescence microscopy; type: cell-based, Candida albicans; conditions: peptide 300 µM, 30 °C, 1 h, 0.03 mM PI 15 min
# Method: as §4, §5
# [4] = test system: Cryptococcus neoformans VKM Y-2755; type: cell-based
# Method: as §1, §2, §3
# [5] = test system: Cr. neoformans cells; assay: Propidium iodide penetration, flow cytometry; type: cell-based, Cryptococcus neoformans; conditions: 28 °C, 2 h; for Penetration of propidium iodide (PI) into Cr. neoformans cells: peptide 300 µM in water, PI 2 µg/mL, FL2 (488/585 nm); for Number of Cr. neoformans cells in flow cytometry: peptide 300 µM
# Method: as §4
# For flow cytometry experiments with Cr. neoformans, the yeasts were grown on the YPD medium at 28 °C for 48 h. After that, the cells were centrifuged at 12,000× g for 3 min, washed with MiliQ water and incubated with the peptides dissolved in water at a concentration of 300 µM at 28 °C for 2 h. The cells were stained with propidium iodide by direct addition of the dye to the incubation medium (final concentration of 2 µg/mL) and measured on a NovoCyte Flow cytometer (Agilent, Santa Clara, CA, USA) using the channel FL2 (488 nm excitation and 585 nm emission). The sample without peptides was used as a control.
# [6] = test system: Pectobacterium carotovorum subsp. carotovorum VKM B-1247; conditions: 30 °C, 24 h, absorbance 594 nm
# Method: All cultures were obtained from the All-Russian Collection of Microorganisms (VKM).
# Mean values, standard deviations (SD), and the significance of differences (p ≤ 0.05) of the means between treatments and controls (t-test for independent variables) were determined using […] v. 6.1 software (StatSoft Inc., Tulsa, OK, USA).
# [7] = test system: F. verticillioides VKM F-670; type: cell-based, Fusarium verticillioides
# Method: as §1, §2, §3
# [8] = test system: Pseudomonas savastanoi pv. savastanoi VKM B-1546; type: cell-based; conditions: 300 µM peptide; 30 °C, 24 h, absorbance 594 nm; vs control without peptide; triplicate, mean
# Method: as §1, §2, §3
# [9] = inhibition curves (Figure 4), highest tested concentration (300 µM)
molecule,measurement,setting,value
CC(C)C[C@H](NC(=O)[C@H](CCCNC(=N)N)NC(=O)[C@H](Cc1c[nH]cn1)NC(=O)[C@H](CO)NC(=O)[C@H](CC(N)=O)NC(=O)[C@H](CS)NC(=O)[C@H](CCC(=O)O)NC(=O)CN)C(=O)N[C@@H](CCC(=O)O)C(=O)N[C@@H](CCCNC(=N)N)C(=O)N[C@@H](CCCCN)C(=O)N[C@@H](CS)C(=O)N[C@@H](Cc1ccccc1)C(=O)N[C@@H](CS)C(=O)N[C@@H](CCCCN)C(=O)N[C@@H](CCCNC(=N)N)C(=O)N[C@H](C(=O)N[C@@H](CS)C(=O)O)[C@@H](C)O [DEFL1-40_65-82] (H-GECNSHRLERKCFCKRTC-OH),"Pathogen inhibition, % (C. albicans)","[1]; 300 µM peptide, YPD-P medium, 30 °C, 24 h, absorbance 594 nm, vs control without peptide, triplicate, mean",failed to suppress
C[C@@H](O)[C@H](NC(=O)[C@H](CS)NC(=O)[C@H](Cc1ccccc1)NC(=O)[C@H](CS)NC(=O)[C@H](CCCNC(=N)N)NC(=O)[C@H](CCCNC(=N)N)NC(=O)[C@H](CCCNC(=N)N)NC(=O)[C@H](Cc1ccccc1)NC(=O)CNC(=O)[C@H](CCCNC(=N)N)NC(=O)[C@H](CS)NC(=O)[C@H](CCCCN)NC(=O)CN)C(=O)N[C@H](C(=O)N[C@@H](Cc1c[nH]cn1)C(=O)N[C@@H](CS)C(=O)N[C@@H](Cc1c[nH]cn1)C(=O)N[C@@H](Cc1c[nH]cn1)C(=O)O)[C@@H](C)O [DEFL1-16_65-82] (H-GKCRGFRRRCFCTTHCHH-OH; N-terminus and C-terminus assumed),Membrane permeabilization of Cr. neoformans cells (PI staining),[2],induced membrane permeabilization
same,Membrane permeabilization of C. albicans cells (PI staining),[3],induced membrane permeabilization
CC(C)[C@H](NC(=O)[C@H](CS)NC(=O)[C@H](CCCNC(=N)N)NC(=O)CNC(=O)CNC(=O)[C@H](CS)NC(=O)[C@H](CS)NC(=O)[C@@H]1CCCN1C(=O)[C@H](Cc1ccccc1)NC(=O)[C@@H](NC(=O)[C@@H](NC(=O)[C@H](CCCNC(=N)N)NC(=O)[C@H](CS)NC(=O)[C@@H](N)CCCCN)[C@@H](C)O)[C@@H](C)O)C(=O)O [Tk-AMP-K2_10-23] (H-KCRTTFPCCGGRCV-OH; N-terminus and C-terminus assumed),Inhibition of Cr. neoformans at the highest tested concentration,[4]; [9],complete inhibition
same,Membrane permeabilization of Cr. neoformans cells (PI staining),[2],induced membrane permeabilization
same,Membrane permeabilization of C. albicans cells (PI staining),[3],induced membrane permeabilization
same,Penetration of propidium iodide (PI) into Cr. neoformans cells,[5],66.86%
same,Number of Cr. neoformans cells in flow cytometry,[5],reduction in the number of Cr. neoformans cells
C[C@H](NC(=O)[C@@H](N)CS)C(=O)NCC(=O)N[C@@H](CCCNC(=N)N)C(=O)NCC(=O)N[C@@H](CCC(N)=O)C(=O)N1CCC[C@H]1C(=O)N[C@@H](Cc1ccc(O)cc1)C(=O)N[C@H](C(=O)NCC(=O)N[C@@H](CO)C(=O)NCC(=O)N[C@@H](CS)C(=O)O)[C@@H](C)O [DEFL4-8_82-94] (H-CAGRGQPYTGSGC-OH; N-terminus and C-terminus assumed),"Pathogen inhibition, % (P. carotovorum)","[6]; 300 µM peptide, modified YPD-P medium, vs control without peptide, triplicate, mean",42%
same,IC50,"[6]; read-out: IC50, μM P. carotovorum, peptide 10–300 µM, from activity vs concentration graph, mean ± SD",> 100 µM
same,Maximum inhibition of F. verticillioides at the highest tested concentration,[7]; [9],26%
same,IC50,"[7]; peptide 10–300 µM, 38 h, absorbance 595 nm, from activity vs concentration graph, mean ± SD",> 100 µM
C[C@@H](O)[C@H](NC(=O)[C@H](CS)NC(=O)[C@H](CCCNC(=N)N)NC(=O)[C@H](CCCNC(=N)N)NC(=O)[C@H](Cc1ccccc1)NC(=O)[C@H](CCCCN)NC(=O)[C@H](CS)NC(=O)[C@H](Cc1ccc(O)cc1)NC(=O)CN)C(=O)N[C@@H](CS)C(=O)N[C@@H](CCC(N)=O)C(=O)N[C@@H](CCCNC(=N)N)C(=O)N[C@@H](CCC(=O)O)C(=O)N[C@@H](CS)C(=O)O [DEFL1-32_55-68] (H-GYCKFRRCTCQREC-OH; N-terminus and C-terminus assumed),Inhibition of C. albicans at the highest tested concentration,[1],92%
same,Membrane permeabilization of Cr. neoformans cells (PI staining),[2],induced membrane permeabilization
same,Membrane permeabilization of C. albicans cells (PI staining),[3],induced membrane permeabilization
PARGRPYTGRA [DEFL4-37_91-101],Activity against Cr. neoformans relative to DEFL4-37_90-102,"[4]; 300 µM (Figure 3), times less active",10 times
CSCC[C@H](NC(=O)[C@H](CS)NC(=O)[C@H](C)NC(=O)CNC(=O)[C@H](CCCNC(=N)N)NC(=O)[C@H](CCCCN)NC(=O)[C@H](C)NC(=O)[C@H](CCCNC(=N)N)NC(=O)[C@H](CO)NC(=O)[C@H](CCCNC(=N)N)NC(=O)[C@H](C)NC(=O)[C@H](CS)NC(=O)[C@H](CCCNC(=N)N)NC(=O)[C@@H](NC(=O)[C@H](C)NC(=O)[C@H](CS)NC(=O)[C@H](CCCCN)NC(=O)CN)C(C)C)C(=O)N[C@@H](CCCCN)C(=O)O [TkSN1_39-57] (H-GKCAVRCARSRAKRGACMK-OH; N-terminus and C-terminus assumed),Inhibition of C. albicans at the highest tested concentration,[1],complete inhibition
same,Membrane permeabilization of Cr. neoformans cells (PI staining),[2],induced membrane permeabilization
same,Membrane permeabilization of C. albicans cells (PI staining),[3],induced membrane permeabilization
AGHGKRYTGRG [HvDEFL4-1_67-77],Membrane permeabilization of Cr. neoformans cells (PI staining),[2],induced membrane permeabilization
same,Membrane permeabilization of C. albicans cells (PI staining),[3],induced membrane permeabilization
same,Penetration of propidium iodide (PI) into Cr. neoformans cells,[5],37.84%
same,Number of Cr. neoformans cells in flow cytometry,[5],reduction in the number of Cr. neoformans cells
CC[C@H](C)[C@H](NC(=O)[C@H](CCCCN)NC(=O)[C@H](CS)NC(=O)[C@H](Cc1ccc(O)cc1)NC(=O)CN)C(=O)N[C@@H](CO)C(=O)N[C@@H](CCCNC(=N)N)C(=O)N[C@@H](CS)C(=O)N[C@H](C(=O)N[C@@H](CS)C(=O)N[C@@H](CCC(N)=O)C(=O)N[C@@H](CCCNC(=N)N)C(=O)N[C@@H](CCC(=O)O)C(=O)N[C@@H](CS)C(=O)O)[C@@H](C)O [DEFL1-11_55-68] (H-GYCKISRCTCQREC-OH; N-terminus and C-terminus assumed),"Pathogen inhibition, % (Ps. savastanoi)",[8],failed to suppress
